Source: patent US20160115186A1, “PHOSPHORIC ACID/PHOSPHONIC ACID DERIVATIVES AND MEDICINAL USES THEREOF” (priority 2013, published 2016)
Where two headings read alike, the source gives them in different places.

Columns and labels:
[1] = test system: HBV; test: microbe, parasite or virus in culture; assay type: cell-based
Procedure: At day 10 post-dosing, 100 μl supernate was taken and the content of HBV DNA was measured by the method of Quantitative PCR to calculate IC50 value.

[2] = test system: DHBV; test: animal or person; assay type: in vivo, sheldrakes; settings: Duck hepatitis B virus, po, 336 h; for inhibition in vivo at 10 mg/kg: 10 mg/kg intragastric once a day for 14 days; for inhibition in vivo at 0.5 mg/kg: 0.5 mg/kg intragastric once a day for 14 days
Procedure: The sheldrakes infected by vertical transmission and being positive in DHBV DNA detection were grouped randomly, 5/group. Water and different doses of the compound to be tested were intragastrically administrated, respectively, once a day, for 14 days. Venous blood samples were collected pre-dosing, at day 14 of dosing and at day 7 after drug withdrawal, the serum DHBV DNA content was measured using external standard TaqMan real-time fluorescence PCR method, and the inhibition ratio was calculated, as compared to the solvent group.

[3] = in vitro; assay type: cell-based; settings: human; Hep G 2.2.15 cells, MTT, day 3 post-dosing
Procedure: Hep G 2.2.15 cells were inoculated in a 96-well plate (with cell number being 5.5×10^4) to continually cultivate for 3 days, new culture solutions containing different concentrations of drugs were added, and 3 wells were provided in parallel; at day 3 post-dosing, MTT was added until 7.5 mg/ml, and continued to cultivate for 2 hours, the supernate was discarded, isopropanol containing 10% […] was added, 120 μl/well, and 0.4 μl/well was further added.

[4] = test system: liver damage in mice caused by CCl4; assay type: in vivo, Kunmin mice; settings: serum, CCl4 model, 0.2 mmol oral twice, 24 hours after second administration
Procedure: Kunmin mice (20 g) were grouped randomly (8/group). 0.2 mmol of a compound to be tested was orally administered; after 1 hour post-dosing, a 0.1% peanut oil solution of CCl4 was subcutaneously injected (10 mL/kg), to prepare a liver damage model; the normal saline was injected as a normal control group. After modeling for 12 hours, 0.2 mmol of the compound to be tested was orally administrated again. After 24 hours from the second administration, blood samples were collected to take serum specimen so as to determine ALT, AST.

[5] = test system: liver damage in mice caused by D-aminogalactose; assay type: in vivo, Kunmin mice; settings: serum, D-aminogalactose 750 mg/kg model, 0.2 mmol oral twice, 24 hours after second administration
Procedure: Kunmin mice (20 g) were grouped randomly (8/group). 0.2 mmol of a compound to be tested was orally administered; after 2 hours post-dosing, D-aminogalactose was intraperitoneally injected at a dose of 750 mg/kg to prepare a liver damage model, and the normal saline was subcutaneously injected as a normal control group. After modeling for 12 hours, 0.2 mmol of the compound to be tested was orally administrated again. After 24 hours from the second administration, blood samples were collected to take serum specimen so as to determine ALT, AST.

[6] = Hepatitis B virus, HepG2.2.15, 240 h, Hep G 2.2.15 cells, HBV DNA in supernate at day 10 post-dosing, read-out: IC50
[7] = read-out: Inhibition ratio (%) Day 14 of dosing
[8] = read-out: Inhibition ratio (%) day 7 after drug withdrawal
[9] = Hepatitis B virus, HepG2.2.15, 240 h
[10] = serum DHBV DNA, read-out: Inhibition ratio (%) Day 14 of dosing
[11] = serum DHBV DNA, read-out: Inhibition ratio (%) day 7 after drug withdrawal

Row | Compound | IC50 [1, 6] | ALT [4] | AST [4] | ALT [5] | AST [5] | IC50 [1, 9] | CC50 at 3 days [3] | further results
1 | Nc1nc2c(ncn2COCCO)c(=O)[nH]1 [Acyclovir, acyclovir, reference compound] | 25.6 µM |  |  |  |  |  |  | inhibition in vivo at 20 mg/kg [2, 7]: 12.5%; inhibition in vivo at 20 mg/kg [2, 8]: 2.64%
2 | COC(=O)C(C)NP(=O)(OCC1OC(n2ccc(N)nc2=O)CS1)Oc1ccccc1 (stereo not shown) [Cf1109, reference compound] | 0.13 µM | 2048 U/L | 3351 U/L | 191 U/L | 140 U/L |  |  | CC50 [3]: 82 µM; inhibition in vivo at 20 mg/kg ([2]; serum DHBV DNA, 20 mg/kg intragastric once a day for 14 days, read-out: Inhibition ratio (%) Day 14 of dosing): 68.8%; inhibition in vivo at 20 mg/kg ([2]; serum DHBV DNA, 20 mg/kg intragastric once a day for 14 days, read-out: Inhibition ratio (%) day 7 after drug withdrawal): 5.38%
3 | Nc1ncnc2c1ncn2CCOCP(=O)(Oc1cccc2c1OCO2)Oc1cccc2c1OCO2 [Compound I1, 9-[[[bis-((benzo[1,3]dioxolan-4-yl)-oxyl)-phosphonyl]-methoxyl]-ethyl]-adenine] |  | 328 U/L | 433 U/L | 679 U/L | 796 U/L | 8.05 µM | > 200 µM | 
4 | Nc1ncnc2c1ncn2CCOCP(=O)(Oc1ccc2c(c1)OCO2)Oc1ccc2c(c1)OCO2 [Compound I2, 9-[[[bis-((benzo[1,3]dioxolan-5-yl)-oxyl)-phosphonyl]-methoxyl]-ethyl]-adenine] |  | 435 U/L | 764 U/L | 514 U/L | 560 U/L | 0.47 µM | > 200 µM | 
5 | Nc1ncnc2c1ncn2CCOCP(=O)(Oc1cccc2c1OCCO2)Oc1cccc2c1OCCO2 [Compound I3, 9-[[[bis-((benzo[1,4]dioxan-5-yl)-oxyl)-phosphonyl]-methoxyl]-ethyl]-adenine] |  |  |  |  |  | 6.07 µM | > 200 µM | 
6 | Nc1ncnc2c1ncn2CCOCP(=O)(Oc1ccc2c(c1)OCCO2)Oc1ccc2c(c1)OCCO2 [Compound I4, 9-[[[bis-((benzo[1,4]dioxan-6-yl)-oxyl)-phosphonyl]-methoxyl]-ethyl]-adenine] |  |  |  |  |  | 3.19 µM | > 200 µM | 
7 | C[C@H](Cn1cnc2c(N)ncnc21)OCP(=O)(Oc1ccc2c(c1)OCO2)Oc1ccc2c(c1)OCO2 [Compound I6, 9-[(R)-2-[[bis-((benzo[1,3]dioxolan-5-yl)-oxyl)-phosphonyl]-methoxyl]-propyl]-adenine] |  |  |  |  |  | 0.41 µM | > 200 µM | 
8 | Nc1nc2c(ncn2COCCOP(=O)(Oc2cccc3c2OCO3)Oc2cccc3c2OCO3)c(=O)[nH]1 [Compound I11, 9-[[[bis-((benzo[1,3]dioxolan-4-yl)-oxyl)-phosphoryloxyl]-ethoxyl]-methyl]-guanine] |  |  |  |  |  | 1.66 µM | > 200 µM | 
9 | Nc1nc2c(ncn2COCCOP(=O)(Oc2ccc3c(c2)OCO3)Oc2ccc3c(c2)OCO3)c(=O)[nH]1 [Compound I12, 9-[[[bis-((benzo[1,3]dioxolan-5-yl)-oxyl)-phosphoryloxyl]-ethoxyl]-methyl]-guanine] |  |  |  |  |  | 0.24 µM | > 200 µM | 
10 | COc1nc(N)nc2c1ncn2COCCOP(=O)(Oc1ccc2c(c1)OCO2)Oc1ccc2c(c1)OCO2 [Compound I13, 2-amino-6-methoxyl-9-[[[bis-((benzo[1,3]dioxolan-5-yl)-oxyl)-phosphoryloxyl]-ethoxyl]-methyl]-purine] |  |  |  |  |  | 0.29 µM | > 200 µM | 
11 | Nc1ccn(C2CSC(COP(=O)(Oc3ccc4c(c3)OCO4)Oc3ccc4c(c3)OCO4)O2)c(=O)n1 (stereo not shown) [Compound I14, 5′-bis-[((benzo[1,3]dioxolan-5-yl)-oxyl)-phosphoryl]-2′,3′-dideoxy-3′-thia-cytidine] |  |  |  |  |  | 5.28 µM | > 200 µM | 
12 | C=C1[C@H](COP(=O)(Oc2ccc3c(c2)OCO3)Oc2ccc3c(c2)OCO3)[C@@H](O)C[C@@H]1n1cnc2c(=O)[nH]c(N)nc21 [Compound I15, 9-[(1S,3R,4S)-4-hydroxyl-3-(bis-(((benzo[1,3]dioxolan-5-yl)-oxyl)-phosphoryl)-oxymethyl)-2-methylenecyclopentyl]-guanine] |  |  |  |  |  | 0.12 µM | > 200 µM | 
13 | COC(=O)[C@@H](C)NP(=O)(CO[C@H](C)Cn1cnc2c(N)ncnc21)Oc1ccc2c(c1)OCO2 (stereo partly shown) [Compound I19] |  |  |  |  |  | 0.008 µM | 146 µM | 
14 | CC(C)OC(=O)[C@H](NP(=O)(CO[C@H](C)Cn1cnc2c(N)ncnc21)Oc1ccc2c(c1)OCO2)C(C)C (stereo partly shown) [Compound I22] |  |  |  |  |  | 0.17 µM | > 200 µM | 
15 | CC(C)OC(=O)[C@@H](C)NP(=O)(CO[C@H](C)Cn1cnc2c(N)ncnc21)Oc1cccc2c1OCO2 (stereo partly shown) [Compound I24] |  |  |  |  |  | 4.6 µM | > 200 µM | 
16 | COc1ccc(Sc2nc(N)nc3c2ncn3CCOCP(=O)(N[C@H](C)C(=O)OC(C)C)Oc2ccc3c(c2)OCO3)cc1 (stereo partly shown) [Compound I26, 2-amino-6-(4-methoxylphenyl)thio-9-[[[(((benzo[1,3]dioxolan-5-yl)-oxyl)-1-isopropyloxylcarbonylethylamino)-phosphonyl]-methoxyl]-ethyl]-purine] |  | 521 U/L | 363 U/L | 212 U/L | 586 U/L | 0.039 µM | > 200 µM | inhibition in vivo at 25 mg/kg [2, 7]: 93.5%; inhibition in vivo at 25 mg/kg [2, 8]: 11.5%
17 | COc1nc(N)nc2c1ncn2COCCOP(=O)(N[C@H](C)C(=O)OC(C)C)Oc1ccc2c(c1)OCO2 (stereo partly shown) [Compound I29] | 0.14 µM | 307 U/L | 561 U/L | 301 U/L | 510 U/L |  |  | CC50 [3]: > 200 µM; inhibition in vivo at 10 mg/kg [2, 10]: 90.8%; inhibition in vivo at 10 mg/kg [2, 11]: 17.1%
18 | C=C1[C@H](CO[P@](=O)(N[C@@H](C)C(=O)OC(C)C)Oc2ccc3c(c2)OCO3)[C@@H](O)C[C@@H]1n1cnc2c(=O)[nH]c(N)nc21 [Compound I38-a] | 0.001 µM | 410 U/L | 289 U/L | 177 U/L | 275 U/L |  |  | CC50 [3]: 139 µM; inhibition in vivo at 0.5 mg/kg [2, 10]: 76.2%; inhibition in vivo at 0.5 mg/kg [2, 11]: 31.4%
19 | C=C1[C@H](CO[P@](=O)(N[C@@H](C)C(=O)OC(C)C)Oc2cccc3c2OCO3)[C@@H](O)C[C@@H]1n1cnc2c(=O)[nH]c(N)nc21 [Compound I39-a] | 0.017 µM |  |  |  |  |  |  | 
20 | C=C1[C@H](CO[P@@](=O)(N[C@@H](C)C(=O)OC(C)C)Oc2cccc3c2OCO3)[C@@H](O)C[C@@H]1n1cnc2c(=O)[nH]c(N)nc21 [Compound I39-b] | 0.065 µM |  |  |  |  |  |  | 
21 | Nc1ccn([C@@H]2CS[C@H](CO)O2)c(=O)n1 [Lamivudine, lamivudine, reference compound] | 0.075 µM |  |  |  |  |  |  | inhibition in vivo at 20 mg/kg [2, 7]: 76.1%; inhibition in vivo at 20 mg/kg [2, 8]: 2.35%
22 | Nc1ncnc2c1ncn2CCOCP(=O)(Oc1ccccc1)Oc1ccccc1 [i-1, 9-[[bis-(phenoxyl)-phosphonyl-methoxyl]-ethyl]-adenine, reference compound] |  | 2930 U/L | 2943 U/L | 1227 U/L | 1456 U/L |  |  | IC50 ([1]; Hep G 2.2.15 cells, HBV DNA in supernate at day 10 post-dosing, read-out: IC50): 11.3 µM
23 | Nc1ncnc2c1ncn2CCOCP(=O)(Oc1cccc2ccccc12)Oc1cccc2ccccc12 [i-2, 9-[[bis-(naphthoxy)-phosphonyl-methoxyl]-ethyl]-adenine, reference compound] |  | 3482 U/L | 3660 U/L | 1374 U/L | 1812 U/L | 1.92 µM | 152 µM | 
